Holding throughout (experiment): Cell proliferation assay (Alamar Blue)
What all share (format): cell-based
(In general: Resazurin is reduced to fluorescent resorufin, in cell work by metabolically active cells.)

For assay [1], the system named is H1299. Conditions: Homo sapiens, NCI-H1299, 96 h, H1299 cells, four days. The method in brief:
(§1)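 Plate 4,000-5,000 cells per well, add 2X compound dilutions, and incubate four days at 37°C, 5% CO2. Add Alamar Blue, incubate four hours, then record fluorescence (544/590 nm).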

In assay [2] the test system is Jurkat. Conditions: Homo sapiens, 96 h, Jurkat cells, four days. The method in brief: as §1
Assay [3] relates to Hs578T. Conditions: Homo sapiens, Hs-578T, 96 h, Hs578T cells, four days. The method in brief:
as §1

Assay [4] has as its system PC3. As to conditions: Homo sapiens, PC-3, 96 h, PC3 cells, four days. The method in brief: as §1
Assay [5] relates to A375. As to conditions: Homo sapiens, A-375, 96 h, A375 cells, four days. The method in brief:
as §1

The test system of assay [6] is MiaPaCa. As to conditions: Homo sapiens, MIA PaCa-2, 96 h, MiaPaCa cells, four days. The method in brief:
as §1

The test system of assay [7] is HCT-116. As to conditions: Homo sapiens, 96 h, HCT-116 cells, four days.
Assay [8] deals with A549. Conditions: Homo sapiens, 96 h, A549 cells, four days. The method in brief: as §1
In assay [9] the test system is MDAMB231. As to conditions: Homo sapiens, MDA-MB-231, 96 h, MDAMB231 cells, four days. The method in brief: as §1
In assay [10] the test system is HL-60. As to conditions: Homo sapiens, 96 h, HL-60 cells, four days. The method in brief: as §1
Assay [11] relates to LNCaP. Conditions: Homo sapiens, 96 h, LNCaP cells, four days. The method in brief:
as §1

The subject of assay [12] is Raji. As to conditions: Homo sapiens, 96 h, Raji cells, four days. The method in brief: as §1
Assay [13] deals with MCF-7. Conditions: Homo sapiens, MCF7, 96 h, MCF-7 cells, four days. The method in brief:
as §1

Assay [14] concerns K-562. As to conditions: Homo sapiens, K562, 96 h, K-562 cells, four days.
For assay [15], the system named is PanC1. As to conditions: Homo sapiens, PANC-1, 96 h, PanC1 cells, four days. The method in brief: as §1
Assay [16] concerns H460. Conditions: Homo sapiens, NCI-H460, 96 h, H460 cells, four days. The method in brief: as §1
In assay [17] the test system is COLO205. Conditions: Homo sapiens, COLO 205, 96 h, COLO205 cells, four days. The method in brief:
as §1

For assay [18], the system named is SK-OV-3. Conditions: Homo sapiens, 96 h, SK-OV-3 cells, four days. The method in brief: as §1
Assay [19] relates to BxPC3. As to conditions: Homo sapiens, BXPC-3, 96 h, BxPC3 cells, four days. The method in brief:
as §1

Assay [20] deals with HT29. Conditions: Homo sapiens, HT-29, 96 h, HT29 cells, four days. The method in brief: as §1

The structures appear in SMILES notation. Some results are limits rather than exact numbers.

Regarding `O=C(O)c1ccc2c(c1)nc(Nc1ccccc1)c1ccncc12` [drawing 286], the IC50 (usually the midpoint of a concentration-inhibition curve) was 6.84 µM in assay [1]; 23.7 µM in assay [2]; 14.9 µM in assay [3]; 15.4 µM in [4]; 18.4 µM in [5]; 7.51 µM in [6]. Moreover, half-maximal inhibition in assay [7] (IC50) required 13.3 µM.
As to `O=C(O)c1ccc2c(c1)nc(Nc1ccc(F)c(Cl)c1)c1ccncc12` [drawing 291], the IC50 was found to be 3.08 µM in assay [1]; 2.68 µM in [2]; 3.31 µM in [3]; 4.86 µM in assay [4]; 3.21 µM in [5]; 3.06 µM in assay [6]. This molecule yielded an IC50 in assay [7] of 4.34 µM.
Turning to `O=C(O)c1ccc2c(c1)nc(Nc1cccc(Cl)c1)c1ccncc12` [drawing 299], the IC50 in [1] came to 3.08 µM; in assay [2] it was 2.37 µM; in assay [3], 0.67 µM; in assay [4], 1.51 µM; in [5], 3.95 µM; in [6], 2.74 µM. In addition, the IC50 in assay [7] worked out at 4.02 µM.
For `O=C(O)c1ccc2c(c1)nc(Nc1cc(F)cc(F)c1)c1ncncc12` [drawing 301], the IC50 in assay [1] amounted to 6.62 µM; in assay [2], 2.59 µM; in assay [3], 5.9 µM; in [4] it was 7.5 µM; in assay [5], 2.63 µM; in [6], 0.85 µM. Besides, in assay [7], inhibition was half-maximal at 4.06 µM (IC50).
For the molecule `O=C(O)c1ccc2c(c1)nc(Nc1cccc(F)c1)c1ncncc12` [drawing 302], the IC50 in [1] worked out at 7.24 µM; in assay [2], 1.89 µM; in assay [3], 3.43 µM; in [4], 4.71 µM; in assay [5], 5.11 µM; in [6], 3.36 µM. In assay [7], this molecule returned an IC50 of 7.1 µM.
Consider `O=C(O)c1ccc2c(c1)nc(Nc1cccc(Cl)c1)c1ncncc12` [drawing 303], for which the IC50 in [1] was 3.01 µM; in [2], 0.88 µM; in assay [3], 11.2 µM; in assay [4] it was 9.14 µM; in assay [5] it was 5.45 µM; in assay [6], 2.09 µM. Besides, the IC50 in assay [7] came to 7.19 µM.
For `C#Cc1cccc(Nc2nc3cc(C(=O)O)ccc3c3cncnc23)c1` [drawing 304], the IC50 turned out to be 1.55 µM in assay [1]; 1.8 µM in assay [2]; 2.86 µM in assay [3]; 3.13 µM in assay [4]; 4.12 µM in assay [5]; 0.67 µM in [6]. In assay [7], this molecule displayed an IC50 of 5.86 µM.
For `CNc1ncc2c(n1)c(Nc1ccccc1)nc1cc(C(=O)O)ccc12` [drawing 307], the IC50 came out at 2.42 µM in assay [1]; 0.73 µM in [2]; 1.84 µM in assay [3]; 3.14 µM in assay [4]; 1.92 µM in assay [5]; 1.09 µM in assay [6]. Further, the IC50 in [7] came out at 2.99 µM.
On to `O=C(O)c1ccc2c(c1)nc(Nc1ccc(Cl)cc1)c1ccncc12` [drawing 308], for which the IC50 in assay [1] was 1.94 µM; in [2] it was 2.53 µM; in assay [3], 6.64 µM; in assay [4] it was 8.63 µM; in assay [5] it was 4.8 µM; in assay [6], 2.7 µM. In assay [7], the IC50 was 6.72 µM.
For the molecule `C#Cc1cccc(Nc2nc3cc(C(=O)O)ccc3c3cnccc23)c1` [drawing 309], the IC50 in assay [1] is 3.65 µM; in assay [2], 2.78 µM; in [3], 4.03 µM; in [4], 16.8 µM; in assay [5], 7.36 µM; in assay [6], 3.85 µM.
Consider `O=C(O)c1ccc2c(c1)nc(Nc1cc(F)cc(F)c1)c1ccncc12` [drawing 311], for which the IC50 in [1] was 8.91 µM; in [2], 2.41 µM; in assay [3], 9.09 µM; in assay [4], 10.1 µM; in assay [5] it was 5.4 µM; in assay [6] it was 1.35 µM. This molecule also returned an IC50 in assay [7] of 4.33 µM.
On to `O=C(O)c1ccc2c(c1)nc(Nc1ccccc1)c1ccncc12` [drawing 372], for which the IC50 in [8] came to 4.16 µM; in [9], 2.66 µM; in assay [10], 4.86 µM; in assay [11] it was 8.18 µM; in [12] it was 13.7 µM; in assay [13], 10.8 µM. Also, the IC50 in assay [14] is 4.01 µM.
Take `O=C(O)c1ccc2c(c1)nc(Nc1ccc(F)c(Cl)c1)c1ccncc12` [drawing 373]: the IC50 was 6.83 µM in assay [8]; 6.13 µM in assay [9]; 1.92 µM in assay [10]; 4.57 µM in assay [11]; 4.51 µM in assay [12]; 8.24 µM in [13]. The molecule also came in with an IC50 in assay [14] of 4.95 µM.
As to `O=C(O)c1ccc2c(c1)nc(Nc1cccc(Cl)c1)c1ccncc12` [drawing 376], the 50% inhibitory concentration (IC50) in [8] was 6.59 µM; in assay [10], 2.64 µM; in assay [11], 4.89 µM; in [12], 3.32 µM; in assay [13] it was 17.7 µM; in assay [14], 2.99 µM.
For the molecule `O=C(O)c1ccc2c(c1)nc(Nc1cc(F)cc(F)c1)c1ncncc12` [drawing 377], the IC50 in assay [8] amounted to 24.6 µM; in [9], 3.1 µM; in assay [10], 1.85 µM; in [11], 1.83 µM; in assay [12], 8.47 µM; in [13] it was 2.02 µM. In [14], half-maximal inhibition (IC50) required 2.41 µM.
As for `O=C(O)c1ccc2c(c1)nc(Nc1cccc(F)c1)c1ncncc12` [drawing 378], the IC50 in assay [8] was 14.1 µM; in [9], 0.84 µM; in assay [10], 9.68 µM; in assay [11] it was 1.36 µM; in assay [12], 4.51 µM; in assay [13], 1.06 µM. Moreover, the IC50 in assay [14] turned out to be 1.77 µM.
For `O=C(O)c1ccc2c(c1)nc(Nc1cccc(Cl)c1)c1ncncc12` [drawing 379], the IC50 in assay [8] came to 28.5 µM; in assay [9], 1.18 µM; in assay [10], 7.35 µM; in assay [11] it was 1.56 µM; in assay [13], 1.79 µM; in assay [14] it was 1.13 µM.
Consider `CNc1ncc2c(n1)c(Nc1ccccc1)nc1cc(C(=O)O)ccc12` [drawing 383], for which the IC50 in assay [8] is 13.9 µM; in assay [9] it was 2.38 µM; in assay [10], 0.73 µM; in [11], 1.44 µM; in assay [12], 4.97 µM; in assay [13], 3.4 µM.
`O=C(O)c1ccc2c(c1)nc(Nc1ccc(F)c(Cl)c1)c1ccncc12` [drawing 444]: the IC50 in [15] turned out to be 1.84 µM; in [16], 8.69 µM; in assay [17] it was 2.2 µM; in [18] it was 7.33 µM; in assay [19], 1.5 µM.
For `O=C(O)c1ccc2c(c1)nc(Nc1cccc(F)c1)c1ccncc12` [drawing 447], in assay [20], half-maximal inhibition (IC50) was put at 12.8 µM. This lies in the double-digit micromolar range.
For `O=C(O)c1ccc2c(c1)nc(Nc1cccc(F)c1)c1ncncc12` [drawing 450], the IC50 in [15] stood at 3.79 µM; in assay [16] it was 6.16 µM; in assay [17] it was 6.16 µM; in assay [18], 14.4 µM; in assay [20], 17 µM; in [19] it was 3.48 µM.
As for `O=C(O)c1ccc2c(c1)nc(Nc1cccc(Cl)c1)c1ncncc12` [drawing 451], the IC50 in assay [15] was 18.7 µM; in [16], 4.1 µM; in [17], 8.62 µM; in assay [18], 8.97 µM; in assay [20], 13 µM; in assay [19], 1.48 µM.
Take `O=C(O)c1ccc2c(c1)nc(Nc1ccc(Cl)cc1)c1ccncc12` [drawing 456]: the IC50 in [15] worked out at 25.8 µM; in assay [16], 9.1 µM; in [17] it was 1.57 µM; in assay [18] it was 15.3 µM; in [20], 26.9 µM; in assay [19], 6.38 µM.
Take `O=C(O)c1ccc2c(c1)nc(Nc1cc(F)cc(F)c1)c1ccncc12` [drawing 459]: the IC50 amounted to 24 µM in [15]; 7.53 µM in assay [16]; 3.62 µM in assay [17]; 10.1 µM in assay [18]; 16.6 µM in assay [20]; 1.63 µM in [19].
Take `N#Cc1cccc(Nc2nc3cc(C(=O)O)ccc3c3cnccc23)c1` [drawing 460]: the IC50 is above 50 µM in [15], 41.8 µM in assay [20] and 3.62 µM in assay [19].
